Measurements taken from patent US9776995B2, “Bicyclic sulfonamide compounds as sodium channel inhibitors” (AMGEN INC., priority 2013, dated 2017).

target: Nav 1.7 (Homo sapiens (Human), UniProt Q15858); assay: Nav 1.7 in vitro PX assay (PatchXpress whole cell voltage clamp); format: cell-based; settings: not given;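 note: holding potential set for 20 to 50% inactivation, sodium current evoked by a 20 ms step to −10 mV, peak current inhibition read after compound exposure, 3–5 cells per concentration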
Sequence (Q15858 whole entry): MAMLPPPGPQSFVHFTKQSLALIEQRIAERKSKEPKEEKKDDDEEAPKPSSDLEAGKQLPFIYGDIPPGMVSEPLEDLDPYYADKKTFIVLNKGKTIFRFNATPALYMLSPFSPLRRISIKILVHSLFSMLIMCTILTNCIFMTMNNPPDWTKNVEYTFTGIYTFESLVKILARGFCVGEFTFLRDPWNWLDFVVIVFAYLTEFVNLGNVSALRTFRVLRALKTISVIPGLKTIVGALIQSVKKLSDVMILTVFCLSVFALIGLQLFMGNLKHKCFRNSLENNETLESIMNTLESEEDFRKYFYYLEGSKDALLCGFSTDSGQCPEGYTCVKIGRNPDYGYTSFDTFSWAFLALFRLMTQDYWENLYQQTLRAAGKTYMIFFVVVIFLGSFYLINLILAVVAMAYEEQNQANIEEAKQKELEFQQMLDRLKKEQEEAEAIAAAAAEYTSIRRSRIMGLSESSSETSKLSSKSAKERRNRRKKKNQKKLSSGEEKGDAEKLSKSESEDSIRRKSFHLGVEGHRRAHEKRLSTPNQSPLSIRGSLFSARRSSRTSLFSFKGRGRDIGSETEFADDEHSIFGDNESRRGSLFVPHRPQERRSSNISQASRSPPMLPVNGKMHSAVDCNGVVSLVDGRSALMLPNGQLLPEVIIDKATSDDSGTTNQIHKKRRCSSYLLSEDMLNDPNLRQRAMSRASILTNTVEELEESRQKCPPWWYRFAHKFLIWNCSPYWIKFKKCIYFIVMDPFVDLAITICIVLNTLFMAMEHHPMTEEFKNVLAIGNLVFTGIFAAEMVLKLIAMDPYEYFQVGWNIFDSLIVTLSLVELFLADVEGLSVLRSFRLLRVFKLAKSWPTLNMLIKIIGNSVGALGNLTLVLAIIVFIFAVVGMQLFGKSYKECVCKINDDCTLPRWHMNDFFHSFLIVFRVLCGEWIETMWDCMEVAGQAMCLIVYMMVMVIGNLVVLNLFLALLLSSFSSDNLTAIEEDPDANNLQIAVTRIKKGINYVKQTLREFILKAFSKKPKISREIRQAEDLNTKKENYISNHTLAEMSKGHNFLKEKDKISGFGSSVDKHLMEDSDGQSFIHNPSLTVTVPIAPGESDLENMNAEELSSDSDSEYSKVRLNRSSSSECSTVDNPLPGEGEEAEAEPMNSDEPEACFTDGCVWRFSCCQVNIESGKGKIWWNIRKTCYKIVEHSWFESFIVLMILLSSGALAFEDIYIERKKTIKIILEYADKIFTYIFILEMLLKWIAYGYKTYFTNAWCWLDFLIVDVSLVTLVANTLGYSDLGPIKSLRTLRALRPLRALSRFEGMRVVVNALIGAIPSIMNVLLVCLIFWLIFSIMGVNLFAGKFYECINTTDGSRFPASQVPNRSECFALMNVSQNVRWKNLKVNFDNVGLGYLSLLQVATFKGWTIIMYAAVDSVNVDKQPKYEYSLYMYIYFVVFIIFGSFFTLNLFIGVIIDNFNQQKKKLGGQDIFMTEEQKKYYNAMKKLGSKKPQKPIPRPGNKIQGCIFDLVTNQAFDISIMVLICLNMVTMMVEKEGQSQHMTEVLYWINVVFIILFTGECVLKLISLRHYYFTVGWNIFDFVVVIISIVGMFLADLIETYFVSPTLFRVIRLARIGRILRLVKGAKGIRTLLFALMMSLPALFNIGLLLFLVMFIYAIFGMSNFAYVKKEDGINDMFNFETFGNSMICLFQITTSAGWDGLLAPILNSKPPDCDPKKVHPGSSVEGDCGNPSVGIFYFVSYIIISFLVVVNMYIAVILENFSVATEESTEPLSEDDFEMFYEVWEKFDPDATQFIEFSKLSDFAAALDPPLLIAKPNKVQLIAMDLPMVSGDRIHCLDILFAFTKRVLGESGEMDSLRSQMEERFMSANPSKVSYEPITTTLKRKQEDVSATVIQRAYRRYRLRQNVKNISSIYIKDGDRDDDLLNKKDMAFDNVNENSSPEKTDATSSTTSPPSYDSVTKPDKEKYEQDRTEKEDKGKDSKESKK

Structure (SMILES)	IC50
COc1cc(-c2ccc(F)c(Cl)c2)c(Cl)cc1-c1ncnc2cc(S(=O)(=O)Nc3ncccn3)ccc12 [Example 329, 4-(2,3′-dichloro-4′-fluoro-5-methoxy-[1,1′-biphenyl]-4-yl)-N-(pyrimidin-2-yl)quinazoline-7-sulfonamide]	43 nM

same assay, conditions: HEK 293 cells stably transfected with human Nav1.7; PatchXpress; partially inactivated state

Structure (SMILES)	IC50
COc1cc(-c2cccc(Cl)c2)c(F)cc1-c1c[nH]c(=O)c2cc(S(=O)(=O)Nc3ccon3)ccc12 [Example 343, 4-(3′-chloro-2-fluoro-5-methoxy-[1,1′-biphenyl]-4-yl)-N-(isoxazol-3-yl)-1-oxo-1,2-dihydroisoquinoline-7-sulfonamide]	163 nM
COc1cc(-c2ccc(Cl)c(C)c2)c(F)cc1-c1c[nH]c(=O)c2cc(S(=O)(=O)Nc3ccon3)ccc12 [Example 452, 4-(4′-CHLORO-2-FLUORO-5-METHOXY-3′-METHYL-[1,1′-BIPHENYL]-4-YL)-N-(ISOXAZOL-3-YL)-1-OXO-1,2-DIHYDROISOQUINOLINE-7-SULFONAMIDE]	184 nM
COc1cc(-c2cccc(F)c2)c(Cl)cc1-c1[nH]c(=O)cc2cc(S(=O)(=O)Nc3ccon3)ccc12 [Example 394, 1-(2-chloro-3′-fluoro-5-methoxy-[1,1′-biphenyl]-4-yl)-N-(isoxazol-3-yl)-3-oxo-2,3-dihydroisoquinoline-6-sulfonamide 2,2,2-trifluoroacetate]	41 nM
COc1cc(F)cc(-c2cc(OC)c(-c3ncnc4cc(S(=O)(=O)Nc5ccon5)ccc34)cc2C)c1 [Example 560, 4-(3′-fluoro-5,5′-dimethoxy-2-methyl-4-biphenylyl)-N-3-isoxazolyl-7-quinazolinesulfonamide]	35 nM

same assay, conditions: PatchXpress (PX)

Structure (SMILES)	IC50
COc1cc(-c2cccc(C)c2)c(C)cc1-c1ncnc2cc(S(=O)(=O)Nc3ccon3)ccc12 [Example 263, N-3-isoxazolyl-4-(5-methoxy-2,3′-dimethyl-4-biphenylyl)-7-quinazolinesulfonamide]	102 nM
COc1cc(-c2cccc(Cl)c2)c(C)cc1-c1nccc2cc(S(=O)(=O)Nc3ccon3)ccc12 [Example 277, 1-(3′-chloro-5-methoxy-2-methyl-4-biphenylyl)-N-3-isoxazolyl-6-isoquinolinesulfonamide]	40 nM
COc1cc(-c2cc(F)cc(F)c2)c(C)cc1-c1ncnc2cc(S(=O)(=O)Nc3ccon3)ccc12 [Example 61, 4-(3′,5′-DIFLUORO-5-METHOXY-2-METHYL-[1,1′-BIPHENYL]-4-YL)-N-(ISOXAZOL-3-YL)QUINAZOLINE-7-SULFONAMIDE]	50.4 nM
COc1cc(-c2cccc(F)c2)ccc1[C@@H]1c2ccc(S(=O)(=O)Nc3ccon3)cc2CCN1C(C)=O [Example 53-A, (S)-2-ACETYL-1-(3′-FLUORO-3-METHOXY-[1,1′-BIPHENYL]-4-YL)-N-(ISOXAZOL-3-YL)-1,2,3,4-TETRAHYDROISOQUINOLINE-6-SULFONAMIDE]	1090 nM
COc1cc(-c2cccc(F)c2)c(Cl)cc1-c1nccc2cc(S(=O)(=O)Nc3cscn3)ccc12 [Example 54, 1-(2-CHLORO-3′-FLUORO-5-METHOXY-[1,1′-BIPHENYL]-4-YL)-N-(THIAZOL-4-YL)ISOQUINOLINE-6-SULFONAMIDE]	493 nM

same assay, conditions: in-vitro Nav 1.7 PX (PatchXpress)

Structure (SMILES)	IC50
COc1cc(-c2ccc(Cl)c(F)c2)ccc1-c1nccc2cc(S(=O)(=O)Nc3ccon3)ccc12 [Example 290, 1-(4′-chloro-3′-fluoro-3-methoxy-4-biphenylyl)-N-3-isoxazolyl-6-isoquinolinesulfonamide]	137 nM
COc1cc(-c2ccc(Cl)c(F)c2)c(C)cc1-c1nccc2cc(S(=O)(=O)Nc3ccon3)ccc12 [Example 286, 1-(4′-chloro-3′-fluoro-5-methoxy-2-methyl-4-biphenylyl)-N-3-isoxazolyl-6-isoquinolinesulfonamide]	188 nM
COc1cc(-c2cc(C)cc(Cl)c2)c(Cl)cc1-c1ncnc2cc(S(=O)(=O)Nc3ccon3)ccc12 [Example 311, 4-(2,3′-dichloro-5-methoxy-5′-methyl-4-biphenylyl)-N-3-isoxazolyl-7-quinazolinesulfonamide]	40 nM
